Test results taken from patent publication US20230017045A1, “PYRIDINE AND PYRIMIDINE CARBOXYLATE HERBICIDES AND METHODS OF USE THEREOF” (Dow AgroSciences LLC, priority 2017, published 2023).
Where two headings read alike, the source gives them in different places.

Tested on: test plant species
Assay: Post-emergent herbicidal activity test (greenhouse, foliar spray, visual growth reduction)
Format: in vivo
Details: post-emergence, 336 h, 140 g ai/ha
Procedure, shortened: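 Greenhouse plants at first–second true leaf stage sprayed overhead at 187 L/ha with compound in acetone/water/isopropanol/DMSO/crop oil/X-77 carrier; controls received solvent blank. Injury rated visually after 14 d on a 0–100% scale versus untreated and control plants, converted to growth reduction.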

[1] = ECHCG: barnyardgrass (Echinochloa crus-galli), 14 days after application, read-out: Visual Growth Reduction (%) 14 Days After Application, ECHCG
[2] = IPOHE: ivy-leaf morning glory (Ipomoea hederacea), 14 days after application, read-out: Visual Growth Reduction (%) 14 Days After Application, IPOHE
[3] = KCHSC: kochia (Bassia scoparia), 14 days after application, read-out: Visual Growth Reduction (%) 14 Days After Application, KCHSC
[4] = ORYSA: rice (Oryza sativa), 14 days after application, read-out: Visual Growth Reduction (%) 14 Days After Application, ORYSA
[5] = SETFA: giant foxtail (Setaria faberi), 14 days after application, read-out: Visual Growth Reduction (%) 14 Days After Application, SETFA
[6] = SORVU: grain sorghum (Sorghum vulgare), 14 days after application, read-out: Visual Growth Reduction (%) 14 Days After Application, SORVU
[7] = STEME: common chickweed (Stellaria media), 14 days after application, read-out: Visual Growth Reduction (%) 14 Days After Application, STEME
[8] = TRZAS: wheat, spring (Triticum aestivum), 14 days after application, read-out: Visual Growth Reduction (%) 14 Days After Application, TRZAS
[9] = blackgrass (Alopecurus myosuroides), 14 Days After Application, read-out: Visual Growth Reduction (%) ALOMY
[10] = canada thistle (Cirsium arvense), 14 Days After Application, read-out: Visual Growth Reduction (%) CIRAR
[11] = crabgrass (Digitaria sanguinalis), 14 Days After Application, read-out: Visual Growth Reduction (%) DIGSA
[12] = lambsquarters (Chenopodium album), 14 Days After Application, read-out: Visual Growth Reduction (%) CHEAL
[13] = redroot pigweed (Amaranthus retroflexus), 14 Days After Application, read-out: Visual Growth Reduction (%) AMARE
[14] = wild oat (Avena fatua), 14 Days After Application, read-out: Visual Growth Reduction (%) AVEFA
[15] = yellow nutsedge (Cyperus esculentus), 14 Days After Application, read-out: Visual Growth Reduction (%) CYPES
[16] = ALOMY: blackgrass (Alopecurus myosuroides), 14 days after application, read-out: Visual Growth Reduction (%) 14 Days After Application, ALOMY
[17] = AMARE: redroot pigweed (Amaranthus retroflexus), 14 days after application, read-out: Visual Growth Reduction (%) 14 Days After Application, AMARE
[18] = AVEFA: wild oat (Avena fatua), 14 days after application, read-out: Visual Growth Reduction (%) 14 Days After Application, AVEFA
[19] = CHEAL: lambsquarters (Chenopodium album), 14 days after application, read-out: Visual Growth Reduction (%) 14 Days After Application, CHEAL
[20] = CIRAR: canada thistle (Cirsium arvense), 14 days after application, read-out: Visual Growth Reduction (%) 14 Days After Application, CIRAR
[21] = CYPES: yellow nutsedge (Cyperus esculentus), 14 days after application, read-out: Visual Growth Reduction (%) 14 Days After Application, CYPES
[22] = DIGSA: crabgrass (Digitaria sanguinalis), 14 days after application, read-out: Visual Growth Reduction (%) 14 Days After Application, DIGSA

SMILES | pest or weed control at 140 g/ha [1] | pest or weed control at 140 g/ha [2] | pest or weed control at 140 g/ha [3] | pest or weed control at 140 g/ha [4] | pest or weed control at 140 g/ha [5] | pest or weed control at 140 g/ha [6] | pest or weed control at 140 g/ha [7] | pest or weed control at 140 g/ha [8] | pest or weed control at 140 g/ha [9] | pest or weed control at 140 g/ha [10] | pest or weed control at 140 g/ha [11] | pest or weed control at 140 g/ha [12] | pest or weed control at 140 g/ha [13] | pest or weed control at 140 g/ha [16] | pest or weed control at 140 g/ha [17] | pest or weed control at 140 g/ha [18] | pest or weed control at 140 g/ha [19] | pest or weed control at 140 g/ha [20] | pest or weed control at 140 g/ha [21] | pest or weed control at 140 g/ha [22] | further results
COC(=O)c1nc(-c2ccc(C#N)cc2F)c(F)cc1Cl [F378, Methyl 3-chloro-6-(4-cyano-2-fluorophenyl)-5-fluoropicolinate] | 0 to 29% | 95 to 100% | 45 to 59% | 0 to 29% | 60 to 74% | 75 to 84% | 0 to 29% | 0 to 29% | 0 to 29% | 45 to 59% | 60 to 74% | 75 to 84% | 45 to 59% |  |  |  |  |  |  |  | pest or weed control at 140 g/ha [14]: 0 to 29%; pest or weed control at 140 g/ha [15]: 0 to 29%
COC(=O)c1nc(-c2ccc(C(F)(F)F)cc2C)c(F)cc1Cl [F170, Methyl 3-chloro-5-fluoro-6-(2-methyl-4-(trifluoromethyl)phenyl)picolinate] | 60 to 74% | 95 to 100% | 60 to 74% | 0 to 29% | 85 to 94% | 85 to 94% | 0 to 29% | 60 to 74% |  |  |  |  |  | 45 to 59% | 95 to 100% | 30 to 44% | 95 to 100% | 85 to 94% | 60 to 74% | 85 to 94% | 
COC(=O)c1nc(-c2c(C=O)cc(OC)c(O)c2Cl)ccc1Cl [F228, Methyl 3-chloro-6-(2-chloro-6-formyl-3-hydroxy-4-methoxyphenyl) picolinate] | 0 to 29% | 0 to 29% | 0 to 29% | 0 to 29% | 0 to 29% | 0 to 29% | 0 to 29% | 0 to 29% | 0 to 29% | 0 to 29% | 0 to 29% | 0 to 29% | 0 to 29% |  |  |  |  |  |  |  | pest or weed control at 140 g/ha [14]: 0 to 29%; pest or weed control at 140 g/ha [15]: 0 to 29%
CC(F)(F)c1ccc(-c2ccc(Cl)c(C(=O)O)n2)c(Cl)c1 [F111, 3-Chloro-6-(2-chloro-4-(1,1-difluoroethyl)phenyl) picolinic acid] | 95 to 100% | 95 to 100% | 95 to 100% | 0 to 29% | 75 to 84% | 85 to 94% |  | 75 to 84% |  |  |  |  |  | 60 to 74% | 95 to 100% | 60 to 74% | 95 to 100% | 95 to 100% | 0 to 29% | 85 to 94% | 
COC(=O)c1nc(-c2cc3c(cc2Cl)OC(F)(F)O3)ccc1Cl [F124, Methyl 3-chloro-6-(6-chloro-2,2-difluorobenzo[d] [1,3]dioxol-5-yl)picolinate] | 75 to 84% | 95 to 100% | 45 to 59% | 0 to 29% | 30 to 44% | 75 to 84% | 0 to 29% | 60 to 74% |  |  |  |  |  | 45 to 59% | 75 to 84% | 30 to 44% | 85 to 94% | 75 to 84% | 0 to 29% | 85 to 94% | 
COC(=O)c1nc(-c2ccc(C#N)cc2Cl)ccc1Cl [F59, methyl 3-chloro-6-(2-chloro-4-cyanophenyl)picolinate] | 45 to 59% | 95 to 100% | 45 to 59% | 0 to 29% | 45 to 59% | 75 to 84% | 0 to 29% | 0 to 29% |  |  |  |  |  | 0 to 29% | 85 to 94% | 0 to 29% | 60 to 74% | 30 to 44% | 0 to 29% | 60 to 74% | 
COC(=O)c1nc(-c2ccc(OS(=O)(=O)C(F)(F)F)cc2Cl)ccc1Cl [F364, methyl 3-chloro-6-(2-chloro-4-(((trifluoromethyl)sulfonyl)oxy)phenyl)picolinate] | 0 to 29% | 85 to 94% | 0 to 29% | 0 to 29% | 60 to 74% | 85 to 94% | 0 to 29% | 0 to 29% | 0 to 29% | 60 to 74% | 75 to 84% | 75 to 84% | 60 to 74% |  |  |  |  |  |  |  | pest or weed control at 140 g/ha [14]: 0 to 29%; pest or weed control at 140 g/ha [15]: 0 to 29%
COC(=O)c1nc(-c2ccc(Cl)c(N(C)C)c2)ccc1Cl [F149, Methyl 3-chloro-6-(4-chloro-3-(dimethylamino)phenyl)picolinate] | 0 to 29% | 30 to 44% | 75 to 84% | 0 to 29% | 0 to 29% | 0 to 29% | 0 to 29% | 0 to 29% |  |  |  |  |  | 0 to 29% | 75 to 84% | 0 to 29% | 95 to 100% | 60 to 74% | 0 to 29% | 0 to 29% | 
COC(=O)c1nc(-c2cc(C)c(Cl)cc2Cl)ccc1Cl [F51, Methyl 3-chloro-6-(2,4-dichloro-5-methylphenyl) picolinate] | 0 to 29% |  | 0 to 29% | 0 to 29% | 0 to 29% | 0 to 29% | 0 to 29% | 0 to 29% |  |  |  |  |  | 0 to 29% | 45 to 59% | 0 to 29% | 45 to 59% | 0 to 29% | 0 to 29% | 0 to 29% | 
COC(=O)c1nc(-c2cc3c(cc2Cl)OCO3)ccc1Cl [F144, Methyl 3-chloro-6-(6-chlorobenzo[d] [1,3]dioxol-5-yl) picolinate] | 0 to 29% | 75 to 84% | 0 to 29% | 0 to 29% | 0 to 29% | 0 to 29% | 0 to 29% | 0 to 29% |  |  |  |  |  | 0 to 29% | 45 to 59% | 0 to 29% | 75 to 84% | 0 to 29% | 0 to 29% | 0 to 29% | 
